Assay results as given in patent publication US12098407B2, “Methods for decoupling yield and productivity of a non-catabolic compound produced by a host cell” (AMYRIS, INC., priority 2019, dated 2024).
Read-outs that look alike come from different tables or passages of the source.

What was measured:
biomass yield = test: Concentration of weak organic acid required to reduce the biomass yield to 50% of the reference condition; format: cell-based; conditions: concentration required to reduce the biomass yield to 50% of the reference condition
[1] = system: farnesene-producing strain; test: Farnesene-producing strain treated with different concentrations of benzoic acid; format: cell-based; conditions: FIG. 8
Method: Benzoic acid can be used to deplete ATP in the cell by forcing the cells to use ATP to pump out excess protons that are moved into the cytoplasm by the benzoyl […]. […] The yield (qP/qS) was calculated from measured specific sugar uptake rate and specific farnesene production rate.
Single colonies were grown on CSM agar plates, then picked into sterile 96-well microtiter plates (1.1 mL working volume Axygen) containing 360 ul of defined liquid growth medium (LGM; as referenced in Example 1, Westfall et al, 2012) with 50 mM succinate (pH 5.0) and 2% sucrose+1% maltose+2 g/L lysine grown for 72 h at 28 C. […] Taking measurements of farnesene, biomass, and total residual sugar during log phase growth (at two times, T1 and T2) allows for the determination of specific productivity, growth rate, and specific sugar uptake rate. Farnesene is measured using full-well extraction with isopropanol, and quantified by UV absorbance at 220 nm with reference to a standard curve. Biomass was measured by assaying the fluorescent signal of intracellular tryptophan with an excitation wavelength of 290 nm and detection at 350 nm (UVOD). The relationship between this tryptophan signal and actual biomass is strain-dependent, and is determined empirically for each strain assayed. We do this by measuring both UVOD and biomass absorbance (OD) just prior to the start of production plates; this gives a per-well OD/UVOD conversion factor that is then used to convert UVOD signal at the end of production runs back to biomass. Another conversion we must make in determining biomass is from optical density (OD) to dry cell weight; this is also determined empirically. […] Growth rates were determined by applying a linear regression to LN (OD) vs time. Total reducing sugars was measured by using an enzymatic determination of sucrose, fructose and glucose with an output of NADH absorption read at 340 nm, as described in various commercial kits, as such those sold by Sigma Aldrich.

HMGR from P. mevalonii = biological target: T1, HMGR from P. mevalonii (Pseudomonas mevalonii, UniProt P13702); conditions: class II HMGR, source P. mevalonii; read-out: Km^NADH; cited from earlier work
T1 sequence (P13702 1-428): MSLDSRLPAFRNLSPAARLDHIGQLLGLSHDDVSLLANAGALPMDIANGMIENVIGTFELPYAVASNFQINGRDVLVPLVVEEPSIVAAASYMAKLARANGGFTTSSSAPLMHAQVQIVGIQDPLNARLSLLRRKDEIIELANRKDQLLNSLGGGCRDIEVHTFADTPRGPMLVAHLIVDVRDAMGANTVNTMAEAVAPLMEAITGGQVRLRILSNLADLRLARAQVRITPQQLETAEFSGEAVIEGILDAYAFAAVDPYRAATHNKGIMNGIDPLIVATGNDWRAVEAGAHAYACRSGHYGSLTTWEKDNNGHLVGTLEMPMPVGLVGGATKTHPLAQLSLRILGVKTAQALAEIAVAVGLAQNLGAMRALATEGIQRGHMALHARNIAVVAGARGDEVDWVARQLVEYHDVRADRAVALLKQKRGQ

HMGR from A. fulgidus = biological target: T2, HMGR from A. fulgidus (Archaeoglobus fulgidus, UniProt O28538); conditions: class II HMGR, source A. fulgidus, cited from earlier work
T2 sequence (O28538 1-436): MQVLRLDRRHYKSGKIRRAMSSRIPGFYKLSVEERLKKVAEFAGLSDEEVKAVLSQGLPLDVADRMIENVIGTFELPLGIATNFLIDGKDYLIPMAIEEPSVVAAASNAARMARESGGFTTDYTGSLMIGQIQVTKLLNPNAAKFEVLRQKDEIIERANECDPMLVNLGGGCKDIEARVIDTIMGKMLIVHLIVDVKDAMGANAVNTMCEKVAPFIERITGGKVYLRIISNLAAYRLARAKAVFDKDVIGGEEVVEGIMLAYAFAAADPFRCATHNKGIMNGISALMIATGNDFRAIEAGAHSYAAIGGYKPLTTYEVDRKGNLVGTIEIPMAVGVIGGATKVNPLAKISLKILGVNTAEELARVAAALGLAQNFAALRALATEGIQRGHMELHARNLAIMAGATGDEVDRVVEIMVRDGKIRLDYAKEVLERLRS

HMGR from S. aureus = conditions: class II HMGR, source S. aureus, cited from earlier work
HMGR from E. faecalis = HMGR from E. faecalis (Enterococcus faecalis, UniProt Q9FD70); conditions: class II HMGR, source E. faecalis; read-out: Km^NADPH; cited from earlier work
[2] = increasing concentrations of benzoic acid

CC(=O)O [Acetic Acid]
YCR50 (biomass yield): 105.0 mM

O=C(O)c1ccccc1 [Benzoic Acid]
YCR50 (biomass yield): 2.0 mM | calculated yield (qP/qS) ([1]; increased benzoic acid concentrations): increased | specific farnesene productivity (qP) [1, 2]: did not change and even increased a little at intermediate concentrations | specific growth rate (mu) [1, 2]: decreased linearly

NC(=O)C1=CN([C@@H]2O[C@H](COP(=O)(O)OP(=O)(O)OC[C@H]3O[C@@H](n4cnc5c(N)ncnc54)[C@H](O)[C@@H]3O)[C@@H](O)[C@H]2O)C=CC1 [NADH]
Km (HMGR from P. mevalonii): 80 µM | Km (HMGR from A. fulgidus; read-out: Km^NADH): 160 µM | Km (HMGR from S. aureus; read-out: Km^NADH): 100 µM

NC(=O)C1=CN([C@@H]2O[C@H](COP(=O)(O)OP(=O)(O)OC[C@H]3O[C@@H](n4cnc5c(N)ncnc54)[C@H](OP(=O)(O)O)[C@@H]3O)[C@@H](O)[C@H]2O)C=CC1 [NADPH]
Km (HMGR from A. fulgidus; read-out: Km^NADPH): 500 µM | Km (HMGR from S. aureus; read-out: Km^NADPH): 70 µM | Km (HMGR from E. faecalis): 30 µM

CCC(=O)O [Propionic Acid]
YCR50 (biomass yield): 20.0 mM

C/C=C/C=C/C(=O)O [Sorbic Acid]
YCR50 (biomass yield): 1.3 mM
